Data set [1] concerns IKK/NF-κB, ERK and p38 pathways. The experiment in a line: Activation of IKK/NF-κB, ERK and p38 pathways in multiple myeloma cells. As to conditions: data not shown. Type of data set: cell-based, human.
Data set [2] is described as follows: Mouse pharmacokinetics study, single i.v. injection. The class given is in vivo, male CD1 mice. The note with it: for Last Time point: in h (unit assumed); for kel: 0.693/t1/2, table note; for half-life / clearance / Vd: male, CD1, mouse; for C0 / MRT inf / AUC: mouse; for AUC: read-out: AUC to Last; for acute toxicity in mice: single i.v. dose 10 mg/kg. As to the method: Z-DTP2 and Z-mDTP3 were administered intravenously to mice. Blood samples were collected at up to 7 time points after intravenous (i.v.) injection of the compounds over 8 hrs, and plasma was analysed by LC-MS/MS to determine the concentration of the compounds at each time point.
Three male CD1 mice, 25-30 grams each, were dosed per administration route per time-point, per compound. The test compound was administered intravenously (at a typical dose level of 10 mg of compound per kg of body weight). Animals were given free access to food throughout the study.
Blood samples were centrifuged to obtain the plasma, which was then transferred to a separate labelled container. Aliquots from the individual time points for the three animals were analysed singly. Proteins were precipitated by adding three volumes of methanol and centrifuging for 30 min at 4° C. Aliquots of 100 μl of the resulting supernatants were diluted with 200 μl of HPLC grade water in wells of a 96-well plate.
Standard curves were prepared in blank plasma matrices and treated in an identical manner to the samples. The plasma samples were quantified by LC-MS/MS, and the concentration of each compound in the plasma were reported in μg/mL.
Pharmacokinetic parameters were calculated employing non-compartmental model analysis, as described in the web site http://www.pharsight.com/main.php
The test compound concentration in plasma samples was measured by LC-MS/MS. The data were quantified using a five-point standard curve over a range of 3-3000 ng/mL.
Proteins were precipitated from 50 μL aliquots of the individual plasma samples by adding 150 μL methanol. Following protein precipitation, plasma samples were centrifuged for 30 min at 4° C. Aliquots of 100 μL of the resulting supernatant were diluted with 200 μL of HPLC grade water in a 96 well plate. The test compound was then quantified by LC-MS/MS from a five-point standard curve prepared by spiking plasma with varying concentrations of test compound dissolved in DMSO over a final concentration range of 3-3000 ng/mL (final DMSO concentration 1%) and treated in an identical manner to the test samples as described above.

The target in the next data set is T1, Gadd45β-inhibited MKK7 (Homo sapiens, UniProt O14733).
T1 construct: expressed in transfected cells; host or cells: HEK-293 (FLAG-MKK7); bacteria (GST-hGadd45β)
T1 sequence (O14733 1-419): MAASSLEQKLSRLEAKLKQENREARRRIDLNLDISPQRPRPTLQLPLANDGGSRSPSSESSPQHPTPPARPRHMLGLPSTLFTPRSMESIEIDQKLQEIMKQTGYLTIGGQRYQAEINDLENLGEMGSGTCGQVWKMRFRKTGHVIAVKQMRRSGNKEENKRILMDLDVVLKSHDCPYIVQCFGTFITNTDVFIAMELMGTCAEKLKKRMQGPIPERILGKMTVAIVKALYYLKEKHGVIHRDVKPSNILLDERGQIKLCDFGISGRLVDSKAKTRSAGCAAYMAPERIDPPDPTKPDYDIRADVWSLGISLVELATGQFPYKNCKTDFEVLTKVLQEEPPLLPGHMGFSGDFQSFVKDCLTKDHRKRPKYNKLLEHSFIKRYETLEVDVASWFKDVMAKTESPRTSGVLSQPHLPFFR
Kind of data set: MKK7 kinase assay in the presence of recombinant hGadd45β. Type of data set: biochemical. As to conditions: 1 nM or 5 nM peptide, 5 μM GST-hGadd45β. As for the experimental part: In FIG. 6, transient transfection of pcDNA-FLAG-MKK7 in HEK-293 cells was performed using the method of Ca3(PO4)2 precipitation, essentially as described in Papa, S et al., (2004) Nat. Cell Biol. 6, 146-153 and references therein. 36 hrs after transfection, the cells were treated with 100 ng/ml phorbol 12-myristate 13-acetate (PMA) and 1 μM ionomycin for 30 min at 37° C. Cell extracts were prepared as described in example 4 and used for immunoprecipitation with anti-FLAG antibodies (binding to FLAG-MKK7) as described in Papa, S et al., (2004) Nat. Cell Biol. 6, 146-153 and references therein. Briefly, 50 μg of cell lysate from PMA-ionomycin (P/D-treated or untreated, HEK-293 cells transiently expressing FLAG-MKK7 was incubated with 10 μl of anti-FLAG M2 Affinity Gel (SIGMA) for 4 hrs at 4° C. during rotation. The immunoprecipitates were then washed 3 times in lysis buffer and twice more in kinase buffer (10 mM HEPES, 5 mM MgCl2, 1 mM MnCl2,12.5 mM β-glycerophosphate, 2 mM DTT, 4 mM NaF and 0.1 mM Na3VO4). MKK7 catalytic activity was finally measured in kinase assays by incubating FLAG-MKK7 immunoprecipitates at 30° C. for 20 min with 20 μl of kinase buffer containing 2 μM of recombinant GST-JNK1 and 5 μCi of [γ-^32P]ATP) (kinase reaction), as described in Papa, S et a., (2004) Nat. Cell Biol. 6, 146-153 and references therein.
In some reactions, to test the ability of D-tetrapeptide antagonists to disrupt the Gadd45β-MKK7 interaction and so release the catalytic activity of MKK7 from Gadd45β-afforded inhibition, FLAG-MKK7 immunoprecipitates were 1) first pre-incubated for 10 min at 30° C. with either 1 nM or 5 nM of DTP1, DTP2 or negative control (NC) D-tetrapeptides, NC1, NC2, NC3 and NC4, and 2) then incubated for another 10 min at 30° C. with or without 5 μM of a GST-fusion protein of recombinant human (h)Gadd45β (GST-hGadd45β; purified from bacterial lysates as described in Papa, S., (2007) J. Biol. Chem. 282, 19029-19041), before using them for the kinase reaction described above, as indicated in FIG. 6.
In all cases, kinase reactions were terminated by the addition of Laemmli sample buffer. […] For a further discussion of MKK7 kinase assay conditions, the reader is directed to Papa, S et al., (2007) J. Biol. Chem. 282, 19029-19041 and Papa, S et al., (2004) Nat. Cell Biol. 6, 146-153 and the references therein.

The target of another data set is T2, MKK7 (Homo sapiens, UniProt O14733).
T2 construct: expressed in transfected cells; host or cells: HEK-293
T2 sequence (O14733 1-419): T1 sequence (O14733 1-419)
Kind of data set: MKK7 kinase assay in the absence of Gadd45β. Type of data set: biochemical. As to conditions: 1 nM or 5 nM peptide. As for the experimental part: In FIG. 6, transient transfection of pcDNA-FLAG-MKK7 in HEK-293 cells was performed using the method of Ca3(PO4)2 precipitation, essentially as described in Papa, S et al., (2004) Nat. Cell Biol. 6, 146-153 and references therein. 36 hrs after transfection, the cells were treated with 100 ng/ml phorbol 12-myristate 13-acetate (PMA) and 1 μM ionomycin for 30 min at 37° C. Cell extracts were prepared as described in example 4 and used for immunoprecipitation with anti-FLAG antibodies (binding to FLAG-MKK7) as described in Papa, S et al., (2004) Nat. Cell Biol. 6, 146-153 and references therein. Briefly, 50 μg of cell lysate from PMA-ionomycin (P/D-treated or untreated, HEK-293 cells transiently expressing FLAG-MKK7 was incubated with 10 μl of anti-FLAG M2 Affinity Gel (SIGMA) for 4 hrs at 4° C. during rotation. The immunoprecipitates were then washed 3 times in lysis buffer and twice more in kinase buffer (10 mM HEPES, 5 mM MgCl2, 1 mM MnCl2,12.5 mM β-glycerophosphate, 2 mM DTT, 4 mM NaF and 0.1 mM Na3VO4). MKK7 catalytic activity was finally measured in kinase assays by incubating FLAG-MKK7 immunoprecipitates at 30° C. for 20 min with 20 μl of kinase buffer containing 2 μM of recombinant GST-JNK1 and 5 μCi of [γ-^32P]ATP) (kinase reaction), as described in Papa, S et a., (2004) Nat. Cell Biol. 6, 146-153 and references therein. […]

The mark [3] stands for this setting: plasma, iv, 10 mg/kg, 10 mg/kg i.v., male CD1 mice, read-out: Total CL (converted).
[4] abbreviates: plasma, iv, 10 mg/kg, 10 mg/kg i.v., male CD1 mice, read-out: Vss.
[5] abbreviates: plasma, iv, 10 mg/kg, 10 mg/kg i.v., male CD1 mice, read-out: Vβ.
Where [6] appears, read: plasma, iv, 10 mg/kg i.v., male CD1 mice.

Structures are written as SMILES. “And” between values parts separate entries of the source, which are not always exact repeats. Identical values can stand only once. Like-named read-outs stand apart in the source and are kept apart here. Square brackets hold non-standard residues; d marks the D form. Peptide text beside a SMILES is read from it. * marks the point of attachment. Cbz = O=C(OCc1ccccc1)*

On to `NC(=O)[C@@H](Cc1ccccc1)NC(=O)[C@@H](Cc1c[nH]cn1)NC(=O)[C@@H](CC(=O)O)NC(=O)[C@@H](Cc1ccc(O)cc1)NC(=O)OCc1ccccc1` [Compound 1, Z-Tyr-Asp-His-Phe-NH2] (Cbz-[dY][dD][dH][dF]-NH2), for which the “effects on the IKK/NF-κB, ERK and p38 pathways” value in data set [1] was “no effects were observed”.
Take `N=C(N)NCCC[C@@H](NC(=O)[C@@H](CCC(=O)O)NC(=O)[C@@H](Cc1ccc(O)cc1)NC(=O)OCc1ccccc1)C(=O)N[C@H](Cc1ccccc1)C(N)=O` [Compound 9, Z-D-Tyr-D-Glu-D-Arg-D-Phe-NH2] (Cbz-[dY][dE][dR][dF]-NH2): the “Last Time point” value in data set [2] (10 mg/kg i.v., male CD1 mice) turned out to be 8.0. Besides, the kel result in data set [2] is “kel/t1/2 = 0.693/2.08 = 0.3323 hr^−1”. For the same compound, the half-life in data set [2] (in vivo, iv, 10 mg/kg, T1/2) was 2.08 h; in data set [2] (plasma, intravenous, text b344, read-out: half-lives in vivo (converted)), roughly 2 h; in data set [2] (plasma, iv, mice, read-out: initial distributive half-life) it was roughly 0.0833 h; in data set [2] (plasma, iv, mice, read-out: terminal half-life (converted)) it was roughly 8 h. Moreover, the clearance is 2.18 mL/min and 78.1 mL/min/kg in data set [2] (setting [3]); 66 to 90 mL/min/kg in data set [2] (plasma, iv, mice, read-out: values of total clearance in the range). Besides, the figures for the Vd in data set [2] (setting [4]) and in data set [2] (setting [5]) were 0.126 L and 0.394 L, respectively. The C0 in data set [2] (setting [6]) came out at 8740 ng/mL. Moreover, in data set [2] (setting [6]), the MRT inf (as a rule, a mean duration of stay, worked out from the concentration-time curve) is 0.973 h. Moreover, in data set [2] (setting [6]), the AUC (commonly the area under the concentration-time curve, a measure of exposure) stood at 2080 ng·h/mL. Moreover, the “acute toxicity in mice” value in data set [2] was “absence of acute toxicity”.
As to `CC(=O)N[C@H](Cc1ccc(O)cc1)C(=O)N[C@H](CCCNC(=N)N)C(=O)N[C@H](Cc1ccccc1)C(N)=O` [Compound 17, Ac-D-Tyr-D-Arg-D-Phe-NH2] (Ac-[dY]-[dR]-[dF]-NH2), the “effects on the IKK/NF-κB, ERK and p38 pathways” value in data set [1] is listed as “no effects were observed”. For the same compound, in data set [2] (10 mg/kg i.v., male CD1 mice), the “Last Time point” value stood at 6.667. In data set [2], the kel result is listed as “kel/t1/2 = 0.693/2.08 = 0.3323 hr^−1”. In addition, the “total clearance, times lower than that of Z-DTP2” value in data set [2] (i.v., mice) is on record as 3 times. For the same compound, the half-life in data set [2] (in vivo, iv, 10 mg/kg, T1/2) is 1.26 h; in data set [2] (plasma, iv, 10 mg/kg, i.v., mice, read-out: initial distributive half-life), roughly 0.0833 h; in data set [2] (plasma, iv, 10 mg/kg, i.v., mice, read-out: terminal half-life (converted)) it was roughly 8 h. The clearance was 0.736 mL/min and 27.1 mL/min/kg in data set [2] (setting [3]); 22 to 27 mL/min/kg in data set [2] (plasma, iv, 10 mg/kg, i.v., mice, read-out: values of total clearance in the range). Further, the results for the Vd in data set [2] (setting [4]) and in data set [2] (setting [5]) were 0.0126 L and 0.0756 L, respectively. In data set [2] (setting [6]), this compound displayed a C0 of 29100 ng/mL. In addition, the MRT inf in data set [2] (setting [6]) was determined as 0.281 h. In addition, the AUC in data set [2] (setting [6]) is 6430 ng·h/mL. For the same compound, the “acute toxicity in mice” value in data set [2] is on record as “absence of acute toxicity”.
In the case of `CC(=O)N[C@H](Cc1ccc(O)cc1)C(=O)N[C@H](CC(=O)O)C(=O)N[C@H](Cc1c[nH]cn1)C(=O)N[C@H](Cc1ccccc1)C(N)=O` [DTP1, Acetyl-(D-Tyr)-(D-Asp)-(D-His)-(D-Phe)-NH2] (Ac-[dY][dD][dH][dF]-NH2), the “restoration of MKK7 catalytic activity” value at Gadd45β-inhibited MKK7 was “fully restored the catalytic activity of MKK7”. Also, the “inhibition of MKK7 catalytic activity in the absence of Gadd45β” value at MKK7 is “nor the active tetrapeptides, DTP1 and DTP2, afforded any inhibition”.
For `CC(=O)N[C@H](Cc1ccc(O)cc1)C(=O)N[C@H](CCC(=O)O)C(=O)N[C@H](CCCNC(=N)N)C(=O)N[C@H](Cc1ccccc1)C(N)=O` [DTP2, Acetyl-(D-Tyr)-(D-Glu)-(D-Arg)-(D-Phe)-NH2] (Ac-[dY][dE][dR][dF]-NH2), the “restoration of MKK7 catalytic activity” value at Gadd45β-inhibited MKK7 is recorded as “fully restored the catalytic activity of MKK7”. On MKK7, the “inhibition of MKK7 catalytic activity in the absence of Gadd45β” value was “nor the active tetrapeptides, DTP1 and DTP2, afforded any inhibition”.

Values taken from patent publication US8993717B2, “Gadd45beta targeting agents” (Imperial Innovations Limited, priority 2009, dated 2015).
